# Assays:
# Ctenocephalides felis [1] = test: Ctenocephalides felis oral test; format: in vivo; settings: application rate 100 ppm in citrated cattle blood, after 2 days
# Description: Ctenocephalides felis—Oral Test • Solvent: dimethyl sulfoxide
# To produce a suitable active compound formulation, 10 mg of active compound are mixed with 0.5 ml of dimethyl sulfoxide. Dilution with citrated cattle blood gives the desired concentration.
# About 20 unfed adult cat fleas (Ctenocephalides felis) are placed into a chamber which is closed at the top and bottom with gauze. A metal cylinder whose bottom end is closed with parafilm is placed onto the chamber. The cylinder contains the blood/active compound formulation, which can be imbibed by the fleas through the parafilm membrane.
# After 2 days, the kill in % is determined. 100% means that all of the fleas have been killed; 0% means that none of the fleas have been killed.
# Aphis gossypii = Aphis gossypii spray test (APHIGO); format: in vivo; settings: 144 h, 6 dat, read-out: % efficacy
# Description: Aphis gossypii Spray Test (APHIGO) • Solvent: 14 parts by weight of dimethylformamide • Emulsifier: alkylaryl polyglycol ether
# (§1) To produce a suitable active compound preparation, 1 part by weight of active compound is dissolved using the stated parts by weight of solvent and made up with water containing an emulsifier concentration of 1000 ppm until the desired concentration is attained. To produce further test concentrations, the formulation is diluted with emulsifier-containing water. If the addition of ammonium salts or/and penetrants is required, these are each added in a concentration of 1000 ppm to the formulation solution.
# Cotton plants (Gossypium hirsutum) heavily infested by the cotton aphid (Aphis gossypii) are sprayed with an active compound formulation of the desired concentration.
# After the desired time, the kill in % is determined. 100% means that all the aphids have been killed; 0% means that no aphids have been killed.
# Phaedon cochleariae = Phaedon cochleariae spray test; format: in vivo; settings: 168 h, after 7 days, read-out: efficacy; for pest or weed control at 20 g/ha: application rate 20 g/ha; for pest or weed control at 100 g/ha: application rate 100 g/ha
# Description: Phaedon cochleariae—Spray Test • Solvent: 78.0 parts by weight of acetone • 1.5 parts by weight of dimethylformamide • Emulsifier: alkylaryl polyglycol ether
# as §1, with “water.” for “water. If the addition of ammonium salts or/and penetrants is required, these are each added in a concentration of 1000 ppm to the formulation solution.”
# Discs of Chinese cabbage leaves (Brassica pekinensis) are sprayed with an active compound formulation of the desired concentration and, after drying, populated with larvae of the mustard beetle (Phaedon cochleariae).
# After 7 days, the efficacy in % is determined. 100% means that all the beetle larvae have been killed; 0% means that no beetle larvae have been killed.
# Nilaparvata lugens = Nilaparvata lugens spray test (NILALU); format: in vivo; settings: 96 h, 4 dat, read-out: % efficacy
# Description: Nilaparvata lugens—Spray Test (NILALU) • Solvent: 52.5 parts by weight of acetone • 7 parts by weight of dimethylformamide • Emulsifier: alkylaryl polyglycol ether
# as §1
# Rice plants (Oryza sativa) are sprayed with an active ingredient formulation of the desired concentration and then populated with larvae of the brown planthopper (Nilaparvata lugens).
# After the desired period of time, the efficacy in % is determined. 100% means that all of the planthoppers have been killed; 0% means that none of the planthoppers have been killed.
# Ctenocephalides felis [2] = test: Ctenocephalides felis in vitro contact test with adult cat fleas; format: in vivo; settings: application rate 5 μg/cm^2 (=500 g of ai/ha), after 48 h
# Description: Ctenocephalides felis—In Vitro Contact Tests with Adult Cat Fleas
# (§2) For the coating of the test tubes, 9 mg of active compound are first dissolved in 1 ml of acetone p.a. and then diluted to the desired concentration with acetone p.a. 250 μl of the solution are distributed homogeneously on the inner walls and the base of a 25 ml glass tube by turning and rocking on an orbital shaker (rocking rotation at 30 rpm for 2 h). With 900 ppm of active compound solution and internal surface area 44.7 cm^2, given homogeneous distribution, an area-based dose of 5 μg/cm^2 is achieved.
# After the solvent has evaporated off, the tubes are populated with 5-10 adult cat fleas (Ctenocephalides felis), sealed with a perforated plastic lid and incubated in a horizontal position at room temperature and ambient humidity. After 48 h, efficacy is determined. To this end, the tubes are stood upright and the fleas are knocked to the base of the tube. Fleas which remain motionless at the base or move in an uncoordinated manner are considered to be dead or moribund.
# 100% efficacy means that all the fleas were dead or moribund. 0% efficacy means that no fleas were harmed.
# Myzus persicae [3] = test: Myzus persicae oral test; format: in vivo; settings: 120 h, application rate 4 ppm, after 5 days, read-out: efficacy
# Description: Myzus persicae Oral Test • Solvent: 100 parts by weight of acetone
# To produce a suitable preparation of active compound, 1 part by weight of active compound is dissolved using the specified parts by weight of solvent and made up with water until the desired concentration is attained.
# 50 μl of the active compound preparation are transferred into microtitre plates and made up to a final volume of 200 μl with 150 μl of IPL41 insect medium (33%+15% sugar). Subsequently, the plates are sealed with parafilm, which a mixed population of green peach aphids (Myzus persicae) within a second microtitre plate is able to puncture and imbibe the solution through.
# (§3) After 5 days, the efficacy in % is determined. 100% means that all the aphids have been killed; 0% means that no aphids have been killed.
# Myzus persicae [4] = test: Myzus persicae drench test (MYZUPE D), savoy cabbage; format: in vivo; settings: soil, 240 h, 10 dat, read-out: % efficacy
# Description: Myzus persicae—Drench Test (MYZUPE D) • Solvent: 7 parts by weight of dimethylformamide • Emulsifier: 2 parts by weight of alkylaryl polyglycol ether
# To produce a suitable active compound preparation, 1 part by weight of active compound is mixed with the specified amounts of solvent and emulsifier, and the concentrate is diluted with water to the desired concentration, it being necessary to include the volume of soil which is drenched in the calculation. It should be ensured that a concentration of 40 ppm of emulsifier in the soil is not exceeded. To produce further test concentrations, water is used for dilution.
# Savoy cabbage (Brassica oleracea) in pots with soil and infested by all stages of the green peach aphid (Myzus persicae) is watered with an active compound preparation of the desired concentration.
# After the desired period of time, the efficacy in % is determined. 100% means that all the aphids have been killed; 0% means that no aphids have been killed.
# [5] = log P by HPLC on reversed-phase column (EEC Directive 79/831 Annex V.A8); format: physicochemical; settings: reversed-phase HPLC column (C18); pH 7.8, 0.001 molar aqueous ammonium bicarbonate/acetonitrile, 55° C.; read-out: log P (neutral)
# Description: The log P values are measured according to EEC Directive 79/831 Annex V.A8 by HPLC (high-performance liquid chromatography) on a reversed-phase column (C 18). Temperature: 55° C.
# The LC-MS determination in the neutral range is effected at pH 7.8 with 0.001 molar aqueous ammonium bicarbonate solution and acetonitrile as mobile phases; linear gradient from 10% acetonitrile to 95% acetonitrile. Called log P (neutral) in the table.
# Calibration is carried out using unbranched alkan-2-ones (having 3 to 16 carbon atoms) with known Log P values (Log P values determined on the basis of the retention times by linear interpolation between two successive alkanones).
# Spodoptera frugiperda = Spodoptera frugiperda spray test; format: in vivo; settings: application rate 100 g/ha, after 7 days
# Description: Spodoptera frugiperda—Spray Test • Solvent: 78.0 parts by weight of acetone • 1.5 parts by weight of dimethylformamide • Emulsifier: alkylaryl polyglycol ether
# as §1, with “water.” for “water. If the addition of ammonium salts or/and penetrants is required, these are each added in a concentration of 1000 ppm to the formulation solution.”
# Leaf discs of maize (Zea mays) are sprayed with an active compound formulation of the desired concentration and, after drying, populated with caterpillars of the fall armyworm (Spodoptera frugiperda).
# After 7 days, the efficacy in % is determined. 100% means that all the caterpillars have been killed; 0% means that no caterpillar has been killed.
# Lucilia cuprina = Lucilia cuprina test; format: in vivo; settings: application rate 100 ppm, L1 larvae, after 2 days
# Description: Lucilia cuprina Test • Solvent: dimethyl sulfoxide
# (§4) To produce a suitable active compound formulation, 10 mg of active compound are mixed with 0.5 ml of dimethyl sulfoxide, and the concentrate is diluted with water to the desired concentration.
# About 20 L1 larvae of the Australian sheep blowfly (Lucilia cuprina) are transferred into a test vessel containing minced horsemeat and the active compound formulation of the desired concentration.
# After 2 days, the kill in % is determined. 100% means that all the larvae have been killed; 0% means that no larvae have been killed.
# Myzus persicae [6] = test: Myzus persicae spray test (MYZUPE S), bell pepper plants; format: in vivo; settings: 144 h, 6 dat, read-out: % efficacy
# Description: Myzus persicae—Spray Test (MYZUPE S) • Solvent: 14 parts by weight of dimethylformamide • Emulsifier: alkylaryl polyglycol ether
# as §1
# Bell pepper plants (Capsicum annuum) severely infested with the green peach aphid (Myzus persicae) are treated by spraying with the active compound formulation in the desired concentration.
# After the desired time, the kill in % is determined. 100% means that all the animals have been killed; 0% means that no animals have been killed.
# Rhipicephalus sanguineus = Rhipicephalus sanguineus in vitro contact test with adult brown dog ticks; format: in vivo; settings: application rate 1 μg/cm^2 (=100 g of ai/ha), after 48 h
# Description: Rhipicephalus sanguineus—In Vitro Contact Tests with Adult Brown Doe Ticks
# as §2
# After the solvent has evaporated off, the tubes are populated with 5-10 adult dog ticks (Rhipicephalus sanguineus), sealed with a perforated plastic lid and incubated in a horizontal position in the dark at room temperature and ambient humidity. After 48 h, efficacy is determined. To this end, the ticks are knocked to the base of the tube and incubated on a hotplate at 45-50° C. for not more than 5 min. Ticks which remain motionless on the base or move in such an uncoordinated manner that they are unable to deliberately avoid the heat by climbing upwards are considered to be dead or moribund.
# An efficacy of 100% means that all the ticks were dead or moribund. 0% efficacy means that none of the ticks were harmed.
# Myzus persicae [7] = test: Myzus persicae spray test (Chinese cabbage leaf discs); format: in vivo; settings: foliar, 120 h, application rate 100 g/ha, after 5 days, read-out: efficacy
# Description: Myzus persicae Spray Test • Solvent: 78 parts by weight of acetone • 1.5 parts by weight of dimethylformamide • Emulsifier: alkylaryl polyglycol ether
# as §1, with “water.” for “water. If the addition of ammonium salts or/and penetrants is required, these are each added in a concentration of 1000 ppm to the formulation solution.”
# Discs of Chinese cabbage leaves (Brassica pekinensis) infested by all stages of the green peach aphid (Myzus persicae) are sprayed with an active compound formulation of the desired concentration.
# as §3
# Boophilus microplus = Boophilus microplus injection test; format: in vivo; settings: application rate 20 μg/animal, laying of fertile eggs after 7 days
# Description: Boophilus microplus Injection Test • Solvent: dimethyl sulfoxide
# To produce a suitable active compound formulation, 10 mg of active compound are mixed with 0.5 ml of solvent and the concentrate is diluted to the desired concentration with solvent.
# 1 μl of the active compound solution is injected into the abdomen of 5 engorged adult female cattle ticks (Boophilus microplus). The animals are transferred into dishes and kept in a climate-controlled room.
# Efficacy is assessed after 7 days by laying of fertile eggs. Eggs which are not visibly fertile are stored in a climate-controlled cabinet until the larvae hatch after about 42 days. An efficacy of 100% means that none of the ticks has laid any fertile eggs; 0% means that all the eggs are fertile.
# Musca domestica = Musca domestica test; format: in vivo; settings: application rate 100 ppm, adult houseflies, after 2 days
# Description: Musca domestica Test • Solvent: dimethyl sulfoxide
# as §4
# Vessels containing a sponge treated with sugar solution and the desired concentration of active compound formulation are populated with 10 adult houseflies (Musca domestica).
# After 2 days, the kill in % is determined. 100% means that all of the flies have been killed; 0% means that none of the flies have been killed.
Structure (SMILES),efficacy (kill) (Ctenocephalides felis [1]) [%],Emax at 20 ppm (Aphis gossypii) [%],pest or weed control at 20 g/ha (Phaedon cochleariae) [%],pest or weed control at 100 g/ha (Phaedon cochleariae) [%],Emax at 500 g/ha (Nilaparvata lugens) [%],efficacy (Ctenocephalides felis [2]) [%],pest or weed control at 4 ppm (Myzus persicae [3]) [%],Emax at 20 ppm (Myzus persicae [4]) [%],chromatographic logP [5],efficacy (Spodoptera frugiperda) [%],efficacy (kill) (Lucilia cuprina) [%],Emax at 20 ppm (Myzus persicae [6]) [%],efficacy (Rhipicephalus sanguineus) [%],pest or weed control at 100 g/ha (Myzus persicae [7]) [%],efficacy (Boophilus microplus) [%],aphid kill at 20 ppm (Aphis gossypii) [%],Emax at 100 g/ha (Nilaparvata lugens) [%],efficacy (kill) (Musca domestica) [%]
CCS(=O)(=O)c1c(-c2nc3ccc(C(F)(F)F)cn3n2)nc2cc(C(F)(F)F)ccn12 [Example I-01],100,99,100,100,80,100,100,90,2.41,100,100,95,–,–,–,–,–,–
CCS(=O)(=O)c1cc2ccccc2nc1-c1nc2cc(C(F)(F)F)ncn2n1 [Example I-05],95,–,100,100,–,100,100,–,–,100,100,–,80,90,–,–,–,–
CCS(=O)(=O)c1c(-c2nc3ccc(C(F)(F)F)cn3n2)nc2cc(NC(=O)C3CC3)ccn12 [Example I-09],95,–,–,–,–,–,100,–,–,–,–,–,–,–,100,–,–,–
CCS(=O)(=O)c1c(-c2nc3ccc(C(F)(F)F)cn3n2)nc2cc(C3CC3)ccn12 [Example I-10],–,–,83,–,–,–,100,90,–,83,–,100,–,90,–,99,100,–
CCS(=O)(=O)c1c(-c2nc3ccc(C(F)(F)F)cn3n2)nc2cc(I)ccn12 [Example I-12],–,–,100,100,–,100,90,–,–,100,100,–,–,–,–,–,–,90
CCS(=O)(=O)c1c(-c2nc3ccc(C(F)(F)F)cn3n2)nc2cc(S(=O)(=O)C3CC3)ccn12 [Example I-13],–,99,83,100,–,–,100,100,–,–,–,95,–,100,–,–,100,–
"CCS(=O)(=O)c1c(-c2nc3cc(C(F)(F)F)ccc3n2C)nc2cc(C(F)(F)F)ccn12 [Example I-34, reference compound]",–,–,–,–,0,–,–,0,–,–,–,0,–,–,–,0,0,–

# — patent US11655258B2, “Heterocycle derivatives as pesticides” (BAYER AKTIENGESELLSCHAFT, priority 2017, dated 2023)
